In patent publication US11339171B2, “MDM2 inhibitors” (Gan & Lee Pharmaceuticals, priority 2017, dated 2022):
Several values for one entry are separate records, joined by “and”; a condition that tells them apart may be missing. Identical values can stand only once. Like-named read-outs stand apart in the source and are kept apart here.

Columns and labels:
[1] = test system: human osteosarcoma cell line SJSA-1; assay: Inhibition of proliferation of human osteosarcoma cell line SJSA-1 (DAPI staining, In Cell Analyzer); details: Homo sapiens, SJSA-1, 72 h, read-out: IC50 (nM), inhibitory activity on proliferation of human osteosarcoma cell line SJSA-1, SJSA-1, incubated 72 h
MDM2 = biological target: T1, MDM2 (Homo sapiens, UniProt Q00987); assay: Inhibition test of MDM2-P53 (GST-MDM2, Biotin-P53, Anti-GST-Tb, SA-XL665); type: binding
T1 construct: made in house
T1 sequence (Q00987 whole entry): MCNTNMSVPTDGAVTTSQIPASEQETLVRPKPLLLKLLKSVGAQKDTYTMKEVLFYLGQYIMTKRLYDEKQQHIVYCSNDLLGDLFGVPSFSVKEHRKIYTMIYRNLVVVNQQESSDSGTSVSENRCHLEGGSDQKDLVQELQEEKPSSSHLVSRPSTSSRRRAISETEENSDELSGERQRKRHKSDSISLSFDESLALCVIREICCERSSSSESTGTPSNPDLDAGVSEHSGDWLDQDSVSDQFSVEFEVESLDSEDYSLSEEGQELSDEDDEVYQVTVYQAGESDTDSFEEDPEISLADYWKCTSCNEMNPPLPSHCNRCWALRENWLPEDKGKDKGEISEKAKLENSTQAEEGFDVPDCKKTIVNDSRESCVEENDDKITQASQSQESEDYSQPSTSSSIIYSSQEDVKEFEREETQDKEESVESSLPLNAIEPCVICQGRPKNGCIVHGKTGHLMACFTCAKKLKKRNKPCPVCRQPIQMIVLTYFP
Procedure, shortened: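 Compounds, serially diluted 5-fold (twelve concentrations), were shaken for 90 min at 25° C with a mix of GST-MDM2 (4 nM final), Biotin-P53, anti-GST-Tb and SA-XL665. Buffer: 1×PBS, 0.1% BSA, 5 mM DTT, 1 mM AEBSF; signal read on a microplate reader.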

[2] = Pharmacokinetics in ICR mice after intravenous and intragastric administration; type: in vivo; details: for Vd: read-out: Vz; for MRT last: read-out: MRT(0-t); for MRT inf: read-out: MRT(0-∞)
Procedure, shortened: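 Male ICR mice, fasted overnight, n=3 per route, given 2 mg/kg IV or 5 mg/kg intragastric in 5% DMSO/40% PEG400/55% (10% HP-β-CD in saline). Plasma drug levels measured by LC-MS/MS after protein precipitation (LLOQ 1 ng/mL); noncompartmental AUC, t1/2, MRT, Cmax, Tmax, F, Vz, CL derived.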

[3] = ICR mice, IV 2 mg/kg, individual animal, 2 mg/kg
[4] = ICR mice, PO 5 mg/kg, individual animal, 5 mg/kg
[5] = male, ICR, mouse, plasma, iv, 2 mg/kg, ICR mice, IV 2 mg/kg, mean of 3 animals
[6] = male, ICR, mouse, plasma, po, 5 mg/kg, ICR mice, PO 5 mg/kg, individual animal
[7] = male, ICR, mouse, plasma, po, 5 mg/kg, ICR mice, PO 5 mg/kg, mean of 3 animals

With `CCOc1cc(OC)c(-c2nc3c(n2C(C)C)[C@@]2(C(=O)Nc4cc(Cl)ccc42)N(c2cc(Cl)cnc2C)C3=O)cn1` [Example S-96, (S)-6-chloro-5′-(5-chloro-2-methylpyridin-3-yl)-2′-(6-ethoxy-4-methoxypyridin-3-yl)-3′-isopropyl-3′H-spiro[dihydroindole-3,4′-pyrrolo[3,4-d]imidazole]-2,6′(5′H)-dione] the IC50 [1] was 25.3 nM, the IC50 (MDM2) was 1.04 nM and the “AUC(0-t)” value [2, 3] was 3109.78 ng·h/mL and 3206.41 ng·h/mL and 6719.85 ng·h/mL. For the same compound, the “AUC(0-∞)” value [2, 3] was 3157.25 ng·h/mL and 3250.65 ng·h/mL and 6815.93 ng·h/mL, the CL [2, 3] was 10.56 mL/min/kg and 10.25 mL/min/kg and 4.89 mL/min/kg and the Cmax [2, 3] was 3353.43 ng/mL and 3438.41 ng/mL. The “MRT(0-t)” value [2, 3] was 0.90 h and 2.62 h, the “MRT(0-∞)” value [2, 3] was 1.00 h and 0.99 h and 2.99 h and the Vz [2, 3] was 0.95 L/kg and 1.42 L/kg. For the same compound, the t1/2 [2, 3] was 0.93 h and 1.07 h and 3.36 h, the “AUC(0-t)” value [2, 4] was 6327.28 ng·h/mL and 6993.90 ng·h/mL and 13010.63 ng·h/mL and the “AUC(0-∞)” value [2, 4] was 6705.00 ng·h/mL and 7471.54 ng·h/mL and 15115.19 ng·h/mL. The Cmax [2, 4] was 3921.65 ng/mL and 2400.19 ng/mL and 5236.64 ng/mL, the “MRT(0-t)” value [2, 4] was 2.42 h and 2.30 h and the “MRT(0-∞)” value [2, 4] was 2.97 h and 3.61 h. For the same compound, the Tmax [2, 4] was 0.50 h, the t1/2 [2, 4] was 2.06 h and 2.58 h and the Cmax ([2]; male, ICR, mouse, plasma, iv, 2 mg/kg, ICR mice, IV 2 mg/kg, individual animal, read-out: Cmax) was 2980 ng/mL. For the same compound, the Tmax ([2]; male, ICR, mouse, plasma, iv, 2 mg/kg, ICR mice, IV 2 mg/kg, individual animal, read-out: Tmax) was 0.08 h, the Vd ([2]; male, ICR, mouse, plasma, iv, 2 mg/kg, ICR mice, IV 2 mg/kg, individual animal) was 0.85 L/kg and the AUC(0-inf) [2, 5] was 4410 ng·h/mL. It also gave a clearance [2, 5] of 8.57 mL/min/kg, an AUC(0-t) ([2]; male, ICR, mouse, plasma, iv, 2 mg/kg, ICR mice, IV 2 mg/kg, mean of 3 animals, read-out: AUC(0-t)) of 4350 ng·h/mL and a Cmax ([2]; male, ICR, mouse, plasma, iv, 2 mg/kg, ICR mice, IV 2 mg/kg, mean of 3 animals, read-out: Cmax) of 3260 ng/mL. It also gave an MRT last [2, 5] of 1.47 h, an MRT inf [2, 5] of 1.66 h and a Tmax ([2]; male, ICR, mouse, plasma, iv, 2 mg/kg, ICR mice, IV 2 mg/kg, mean of 3 animals, read-out: Tmax) of 0.083 h. For the same compound, the Vd [2, 5] was 1.07 L/kg, the half-life ([2]; male, ICR, mouse, plasma, iv, 2 mg/kg, ICR mice, IV 2 mg/kg, mean of 3 animals, read-out: t1/2 (converted)) was 1.79 h and the MRT last [2, 6] was 1.66 h. For the same compound, the MRT inf [2, 6] was 2.15 h, the Tmax ([2]; male, ICR, mouse, plasma, po, 5 mg/kg, ICR mice, PO 5 mg/kg, individual animal, read-out: Tmax) was 0.25 h and the half-life ([2]; male, ICR, mouse, plasma, po, 5 mg/kg, ICR mice, PO 5 mg/kg, individual animal, read-out: t1/2 (converted)) was 1.69 h. The AUC(0-inf) [2, 7] was 9760 ng·h/mL, the AUC(0-t) ([2]; male, ICR, mouse, plasma, po, 5 mg/kg, ICR mice, PO 5 mg/kg, mean of 3 animals, read-out: AUC(0-t)) was 8780 ng·h/mL and the Cmax ([2]; male, ICR, mouse, plasma, po, 5 mg/kg, ICR mice, PO 5 mg/kg, mean of 3 animals, read-out: Cmax) was 3850 ng/mL. For the same compound, the MRT last [2, 7] was 2.13 h, the MRT inf [2, 7] was 2.91 h and the Tmax ([2]; male, ICR, mouse, plasma, po, 5 mg/kg, ICR mice, PO 5 mg/kg, mean of 3 animals, read-out: Tmax) was 0.42 h. It also gave a half-life ([2]; male, ICR, mouse, plasma, po, 5 mg/kg, ICR mice, PO 5 mg/kg, mean of 3 animals, read-out: t1/2 (converted)) of 2.11 h, an AUC(0-t) ([2]; male, ICR, mouse, plasma, po, 5 mg/kg, oral intragastric administration 5 mg/kg, read-out: AUC0-t) of 8780 ng·h/mL and a half-life ([2]; male, ICR, mouse, plasma, po, 5 mg/kg, oral intragastric administration 5 mg/kg, read-out: half-life (converted)) of 2.11 h. For the same compound, the bioavailability ([2]; male, mouse, plasma, ICR mice, PO 5 mg/kg vs IV 2 mg/kg, from mean values, read-out: F* (bioavailability)) was 80.8%.
